The text below walks through data of patent US5010093A, “Nitric ester derivative” (Fujisawa Pharmaceutical Co., Ltd., priority 1987, dated 1991).

In brackets after ≈: the same amount, converted by molar mass.

One assay relates to Normotensive Rats. As to the kind of experiment: Effect on Normotensive Rats (duration of hypotensive effect after oral dosing). It is filed as in vivo. Conditions: 10 mg/kg, normotensive male S.D. rats fasted about 18 hours. The method, then:
7 to 9-week-old male S.D. rats with mean arterial blood pressure of 100-125 mmHg, weighing 245-375 g, were used. The animals were cannulated in the left femoral artery and the mean blood pressure and heart rate were measured with a pressure-transducer. The drugs were given orally. The animals were deprived of food for about 18 hours before oral dosing. The test drugs were dissolved in saline or ethanol, and given in oral doses of 10 mg/kg. The duration of half the maximum hypotensive effect was calculated as T 1/2. Compound 1 ,and Compound A.

The next assay deals with Isolated Rat Aorta. Nature of the assay: Effect on Isolated Rat Aorta (relaxation of norepinephrine-contracted aortic strips). Conditions: aortic spiral strips, norepinephrine 3.2 ×10^-8 M tonus, 37° C., effect of papaverine 10^-4 M=100%, read-out: ED50 value. On the procedure: The aortas were removed from rats. Spiral strips approximately 10 mm in length were cut from the aorta, and suspended in an organ bath containing Tyrode's solution at 37° C., aerated with a gas mixture of 95% oxygen and 5% carbon dioxide. The tonus of the strips was recorded on a polygraph with a force-displacement transducer. After the initial resting tension was adjusted to 0.5 g, norepinephrine 3.2 ×10^-8 M was added to the organ bath to increase the tonus of the aortic strips to 0.9-1.1 g.
The cumulative concentrations of the test compound were then added, and finally papaverine 10^-4 M was given to determine maximum relaxation. ED50 values were calculated by interpolation from the mean cumulative dose-activity curves (effect of papaverine 10^-4 M=100%).
N-(2-Nitrooxyethyl)-2-methyl-4-thiazolecarboxamide hydrochloride (hereinafter referred to as Compound .circle.1 ), and N-(2-Nitrooxyethyl)-3-pyridinecarboxamide (Reference Compound A) (hereinafter referred to as Compound A).

Take `O=C(NCCO[N+](=O)[O-])c1cccnc1` [Compound A, N-(2-Nitrooxyethyl)-3-pyridinecarboxamide]: the “T 1/2 (duration of half the maximum hypotensive effect)” value with Normotensive Rats turned out to be 0.833 h. Also, the EC50 in the assay with Isolated Rat Aorta worked out at 0.94 µg/mL (≈ 4.45 µM).

In the case of `Cc1nc(C(=O)NCCO[N+](=O)[O-])cs1` [.circle.1], in the assay on Normotensive Rats, the “T 1/2 (duration of half the maximum hypotensive effect)” value came out at 1.67 h. Moreover, the EC50 with Isolated Rat Aorta was 0.091 µg/mL (≈ 0.394 µM).
